This note sets out measurements from patent US8889708B2 (Boehringer Ingelheim International GmbH, priority 2013, dated 2014).

The target in one data set is recombinant human DPPI (Homo sapiens (Human), UniProt P53634). The experiment in a line: Inhibition of Human DPPI (Cathepsin C). It counts as biochemical. As to conditions: substrate Gly-Arg-AMC, 30 min room temperature. From the text:
Inhibition of Human DPPI (Cathepsin C)
Materials: Microtiterplates (Optiplate-384 F) were purchased from PerkinElmer (Prod. No. 6007270). The substrate Gly-Arg-AMC was from Biotrend (Prod.-No. 808756 Custom peptide). Bovine serum albumin (BSA; Prod. No. A3059) and Dithiothreitol (DTT; Prod. No D0632) were from Sigma. TagZyme buffer was from Riedel-de-Haen (Prod.-No. 04269), NaCl was from Merck (Prod.-No. 1.06404.1000) and morpholinoethane sulfonic acid (MES), was from Serva (Prod.-No. 29834). The DPP1 inhibitor Gly-Phe-DMK was purchased from MP Biomedicals (Prod.-No. 03DK00625). The recombinant human DPPI was purchased from Prozymex. All other materials were of highest grade commercially available.
The following buffers were used: MES buffer: 25 mM MES, 50 mM NaCl, 5 mM DTT, adjusted to pH 6.0, containing 0.1% BSA; TAGZyme Buffer: 20 mM NaH2PO4, 150 mM NaCl adjusted to pH 6.0 with HCl
The recombinant human DPPI was diluted in TAGZyme buffer to 1 U/ml (38.1 μg/ml, respectively), and then activated by mixing in a 1:2 ratio with a Cysteamine aqueous solution (2 mM) and incubating for 5 min at room temperature.
Five uL test compound (final concentration 0.1 nM to 100 μM) in aqua bidest (containing 4% DMSO, final DMSO concentration 1%) were mixed with 10 μL of DPPI in MES buffer (final concentration 0.0125 ng/μL) and incubated for 10 min. Then, 5 μL of substrate in MES buffer (final concentration 50 μM) were added. The microtiter plates were then incubated at room temperature for 30 min. Then, the reaction was stopped by adding 10 μL of Gly-Phe-DMK in MES-buffer (final concentration 1 μM). The fluorescence in the wells was determined using a Molecular Devices SpectraMax M5 Fluorescence Reader (Ex 360 nm, Em 460 nm) or an Envision Fluorescence Reader (Ex 355 nm, Em 460 nm).
Each assay microtiter plate contained wells with vehicle controls (1% DMSO in bidest+0.075% BSA) as reference for non-inhibited enzyme activity (100% Ctl; high values) and wells with inhibitor (Gly-Phe-DMK, in bidest+1% DMSO+0.075% BSA, final concentration 1 μM) as controls for background fluorescence (0% Ctl; low values).
The analysis of the data was performed by calculating the percentage of fluorescence in the presence of test compound in comparison to the fluorescence of the vehicle control after subtracting the background fluorescence using the following formula: (RFU(sample)−RFU(background))*100/(RFU(control)−RFU(background))
Data from these calculations were used to generate IC50 values for inhibition of DPPI, respectively.

A short description of data set [1]: Metabolic stability with human liver microsomes. The data set is classed as in vitro ADME. As to conditions: pH 7.6; pooled human liver microsomes, 37° C., 1 μM test compound, 1 mg/ml protein, NADPH; read-out: In vitro stability in human liver microsome incubations t½. The procedure:
Determination of Metabolic Stability with Human Liver Microsomes
The metabolic degradation of the test compound is assayed at 37° C. with pooled human liver microsomes. The final incubation volume of 100 μl per time point contains TRIS buffer pH 7.6 (0.1 M), magnesium chloride (5 mM), microsomal protein (1 mg/ml) and the test compound at a final concentration of 1 μM. Following a short preincubation period at 37° C., the reactions are initiated by addition of beta-nicotinamide adenine dinucleotide phosphate, reduced form (NADPH, 1 mM) and terminated by transferring an aliquot into acetonitrile after different time points. Additionally, the NADPH-independent degradation is monitored in incubations without NADPH, terminated at the last time point. The [%] remaining test compound after NADPH independent incubation is reflected by the parameter c(control) (metabolic stability). The quenched incubations are pelleted by centrifugation (10,000 g, 5 min). An aliquot of the supernatant is assayed by LC-MS/MS for the amount of parent compound.
The half-life (t½ INVITRO) is determined by the slope of the semilogarithmic plot of the concentration-time profile. The intrinsic clearance (CL_[…]) is calculated by considering the amount of protein in the incubation: CL_[…][μl/min/mg protein]=(ln 2/(half-life[min]*protein content[mg/ml]))*1,000.
In general terms: Microsomes from liver hold many membrane-bound enzymes, among them those of drug oxidation.

Sequence of recombinant human DPPI (P53634 231-394): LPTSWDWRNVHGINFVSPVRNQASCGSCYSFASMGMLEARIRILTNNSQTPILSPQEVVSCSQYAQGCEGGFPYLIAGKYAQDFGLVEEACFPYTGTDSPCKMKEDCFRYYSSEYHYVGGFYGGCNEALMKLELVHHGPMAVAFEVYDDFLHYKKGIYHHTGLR
Sequence of recombinant human DPPI (P53634 395-463): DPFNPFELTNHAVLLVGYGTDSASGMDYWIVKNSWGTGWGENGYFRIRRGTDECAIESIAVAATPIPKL
Sequence of recombinant human DPPI (P53634 25-134): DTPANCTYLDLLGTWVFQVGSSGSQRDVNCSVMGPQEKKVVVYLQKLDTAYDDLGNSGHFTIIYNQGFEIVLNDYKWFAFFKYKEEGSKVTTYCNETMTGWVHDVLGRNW

On to `COCCN1C(=O)Cc2ccc(-c3ccc(C[C@@H](C#N)NC(=O)C45CCC(CC4)CN5)c(F)c3)cc21` [Example 26], for which the IC50 on recombinant human DPPI amounted to 4.3 nM. Further, in data set [1], the half-life at 1 μM is over 2.17 h.

Turning to `CC1(C)OC(=O)c2ccc(-c3ccc(C[C@@H](C#N)NC(=O)C45CCC(CC4)CN5)c(F)c3)cc21` [Example 27], the IC50 at recombinant human DPPI was found to be 2.2 nM. In data set [1], the half-life at 1 μM was over 2.17 h.

As for `N#C[C@H](Cc1ccc(-c2ccc3c(c2)CCNC3=O)cc1F)NC(=O)C12CCC(CC1)CN2` [Example 22], at recombinant human DPPI, the IC50 was 6.8 nM. For the same compound, in data set [1], the half-life at 1 μM is over 2.17 h.

Regarding `N#C[C@H](Cc1ccc(-c2csc(C(N)=O)c2)cc1F)NC(=O)C12CCC(CC1)CN2` [Example 31], on recombinant human DPPI, the half-maximal inhibitory concentration (IC50) worked out at 4.3 nM. Besides, in data set [1], the half-life at 1 μM was over 2.17 h.

For `CN1Cc2cc(-c3ccc(C[C@@H](C#N)NC(=O)C45CCC(CC4)CN5)cc3)ccc2C1=O` [Example 4], the half-inhibitory concentration (IC50) at recombinant human DPPI is 50.1 nM. Also, the half-life at 1 μM in data set [1] is over 2.17 h.

For `N#C[C@H](Cc1ccc(-c2ccc3c(c2)NC(=O)C3)cc1F)NC(=O)C12CCC(CC1)CN2` [Example 23], the IC50 on recombinant human DPPI was determined as 6.6 nM. Moreover, the half-life at 1 μM in data set [1] was over 2.17 h.

As to `CS(=O)(=O)c1ccc(-c2ccc(C[C@@H](C#N)NC(=O)C34CCC(CC3)CN4)c(F)c2)cc1` [Example 21, N-[(1S)-1-cyano-2-[2-fluoro-4-(4-methanesulfonylphenyl)phenyl]ethyl]-2-azabicyclo[2.2.2]octane-1-carboxamide], at recombinant human DPPI, the concentration for half-maximal inhibition (IC50) came out at 17 nM. In data set [1], the half-life at 1 μM was over 2.17 h.

Turning to `CN1C(=O)Cc2ccc(-c3ccc(C[C@@H](C#N)NC(=O)C45CCC(CC4)CN5)c(F)c3)cc21` [Example 28], at recombinant human DPPI, the IC50 turned out to be 4.9 nM. Besides, the half-life at 1 μM in data set [1] was over 2.17 h.

Take `CN1C(=O)Cc2ccc(-c3ccc(C[C@@H](C#N)NC(=O)C45CCC(CC4)CN5)cc3)cc21` [Example 2]: the IC50 on recombinant human DPPI is 17.1 nM. Further, the half-life at 1 μM in data set [1] is over 2.17 h.

The term IC50 denotes the midpoint of a concentration-inhibition curve.
